In PMC7914897, “Cytotoxic Potential of a-Azepano- and 3-Amino-3,4-SeCo-Triterpenoids” (International Journal of Molecular Sciences, 2021):
Where two headings read alike, the source gives them in different places.

Columns and labels:
[1] = tested on: MCF7 (Breast cancer); experiment: NCI-60 screen (SRB, 48 h); settings: Homo sapiens; for GI50: MCF7; for IC (TGI): MCF7, 48 h, read-out: TGI; for CC50: MCF7, read-out: LC50
[2] = tested on: SNB-19 (CNS cancer); experiment: NCI-60 screen (SRB, 48 h); settings: Homo sapiens; for GI50: SNB-19; for IC (TGI): SNB-19, 48 h, read-out: TGI
[3] = tested on: Renal Cancer subpanel; experiment: NCI-60 screen, subpanel; settings: Homo sapiens; for IC (TGI): 48 h, read-out: TGI MG_MID; for GI50: read-out: GI50 MG_MID; for CC50: read-out: LC50 MG_MID
[4] = tested on: CNS cancer subpanel; experiment: NCI-60 screen, subpanel; settings: Homo sapiens; for IC (TGI): 48 h, read-out: TGI MG_MID; for GI50: read-out: GI50 MG_MID; for CC50: read-out: LC50 MG_MID
[5] = tested on: SK-MEL-5 (Melanoma); experiment: NCI-60 screen (SRB, 48 h); settings: Homo sapiens; for GI50: SK-MEL-5; for IC (TGI): SK-MEL-5, 48 h, read-out: TGI
[6] = tested on: ACHN (Renal cancer); experiment: NCI-60 screen (SRB, 48 h); settings: Homo sapiens; for IC (TGI): 48 h, read-out: TGI
[7] = tested on: SF-295 (CNS cancer); experiment: NCI-60 screen (SRB, 48 h); settings: Homo sapiens; for GI50: SF-295; for IC (TGI): SF-295, 48 h, read-out: TGI; for CC50: SF-295, read-out: LC50
[8] = tested on: A2780 (ovarian carcinoma); experiment: SRB cytotoxicity assay, 72 h; type: cell-based, human; settings: A2780, 72 h, cut-off 30 µM
Summary of the method: (§1)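 Seed, 24 h; compound 0–30 µM serial dilutions, 72 h (DMSO ≤0.5%); fix 10% TCA, 4 °C; stain 0.4% SRB ~20 min; 1% AcOH wash; solubilise 10 mM Tris; A570. EC50 vs untreated.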

[9] = tested on: HT29 (colorectal carcinoma); experiment: SRB cytotoxicity assay, 72 h; type: cell-based, human; settings: HT29, 72 h, cut-off 30 µM
Summary of the method: as §1

[10] = tested on: FaDu (hypopharyngeal carcinoma); experiment: SRB cytotoxicity assay, 72 h; type: cell-based, human; settings: cut-off 30 µM
Summary of the method: as §1

[11] = tested on: A375 (malignant melanoma); experiment: SRB cytotoxicity assay, 72 h; type: cell-based, human; settings: A375, 72 h, cut-off 30 µM
Summary of the method: as §1

[12] = tested on: MCF-7 (breast carcinoma); experiment: SRB cytotoxicity assay, 72 h; type: cell-based, human; settings: MCF-7, 72 h, cut-off 30 µM
Summary of the method: as §1

[13] = tested on: MALME-3M (Melanoma); experiment: NCI-60 screen (SRB, 48 h); settings: Homo sapiens; for IC (TGI): 48 h, read-out: TGI
[14] = tested on: NCI-H226 (NSC lung cancer); experiment: NCI-60 screen (SRB, 48 h); settings: Homo sapiens; for GI50: NCI-H226; for IC (TGI): NCI-H226, 48 h, read-out: TGI
[15] = tested on: HCC-2998 (Colon cancer); experiment: NCI-60 screen (SRB, 48 h); settings: for GI50: HCC 2998; for IC (TGI): HCC 2998, 48 h, read-out: TGI
[16] = tested on: KM12 (Colon cancer); experiment: NCI-60 screen (SRB, 48 h); settings: Homo sapiens; for GI50: KM12; for IC (TGI): KM12, 48 h, read-out: TGI
[17] = tested on: TK-10 (Renal cancer); experiment: NCI-60 screen (SRB, 48 h); settings: Homo sapiens; for GI50: TK-10; for IC (TGI): TK-10, 48 h, read-out: TGI; for CC50: TK-10, read-out: LC50
[18] = tested on: NCI-H460 (NSC lung cancer); experiment: NCI-60 screen (SRB, 48 h); settings: Homo sapiens; for GI50: NCI-H460; for IC (TGI): NCI-H460, 48 h, read-out: TGI
[19] = tested on: NCI-H522 (NSC lung cancer); experiment: NCI-60 screen (SRB, 48 h); settings: Homo sapiens; for GI50: NCI-H522; for IC (TGI): NCI-H522, 48 h, read-out: TGI; for CC50: NCI-H522, read-out: LC50
[20] = tested on: A498 (Renal cancer); experiment: NCI-60 screen (SRB, 48 h); settings: Homo sapiens; for GI50: A498; for IC (TGI): A498, 48 h, read-out: TGI; for CC50: A498, read-out: LC50
[21] = tested on: EKVX (NSC lung cancer); experiment: NCI-60 screen (SRB, 48 h); settings: Homo sapiens; for IC (TGI): 48 h, read-out: TGI
[22] = tested on: T-47D (Breast cancer); experiment: NCI-60 screen (SRB, 48 h); settings: Homo sapiens, T47D; for IC (TGI): 48 h, read-out: TGI; for CC50: read-out: LC50
[23] = tested on: OVCAR-4 (Ovarian cancer); experiment: NCI-60 screen (SRB, 48 h); type: cell-based; settings: Homo sapiens; for GI50 / CC50: OVCAR-4; for IC (TGI): OVCAR-4, 48 h; for CC50: read-out: LC50 (the source's name)
[24] = tested on: SW-620 (Colon cancer); experiment: NCI-60 screen (SRB, 48 h); settings: Homo sapiens; for GI50: SW-620; for IC (TGI): SW-620, 48 h, read-out: TGI

CC1(C)CC[C@]23CC[C@]4(C)[C@H](CC[C@@H]5[C@@]6(C)CCCNC(C)(C)[C@@H]6CC[C@]54C)[C@H]2[C@H]1OC3 [Compound 7, Azepanoallobetulin]
GI50 [1]: 1.44 µM
IC (TGI) [1]: 3.01 µM
CC50 [1]: 6.3 µM
GI50 [2]: 1.85 µM
IC (TGI) [2]: 3.35 µM
CC50 ([2]; SNB-19, read-out: LC50): 6.07 µM
IC (TGI) [3]: 3.22 µM
GI50 [3]: 1.67 µM
CC50 [3]: 6.21 µM
IC (TGI) [4]: 3.51 µM
GI50 [4]: 1.58 µM
CC50 [4]: 10.2 µM
GI50 [5]: 1.69 µM
IC (TGI) [5]: 3.06 µM
CC50 ([5]; SK-MEL-5, read-out: LC50): 5.53 µM
GI50 [6]: 1.71 µM
IC (TGI) [6]: 3.08 µM
CC50 ([6]; read-out: LC50): 5.55 µM
GI50 [7]: 1.7 µM
IC (TGI) [7]: 3.19 µM
CC50 [7]: 5.99 µM
EC50 [8]: n.s.
EC50 [9]: n.s.
EC50 [10]: n.s.
EC50 [11]: n.s.
EC50 [12]: n.s.
GI50 [13]: 1.79 µM
IC (TGI) [13]: 3.47 µM
CC50 ([13]; read-out: LC50): 6.72 µM
GI50 [14]: 1.7 µM
IC (TGI) [14]: 3.47 µM
CC50 ([14]; NCI-H226, read-out: LC50): 7.09 µM
GI50 ([15]; Homo sapiens): 1.54 µM
IC (TGI) ([15]; Homo sapiens): 2.97 µM
CC50 ([15]; Homo sapiens, HCC 2998, read-out: LC50): 5.72 µM
GI50 [16]: 1.86 µM
IC (TGI) [16]: 3.44 µM
GI50 [17]: 1.89 µM
IC (TGI) [17]: 3.61 µM
CC50 [17]: 6.91 µM
GI50 [18]: 0.65 µM
IC (TGI) [18]: 2.2 µM
CC50 ([18]; NCI-H460, read-out: LC50): 6.12 µM
GI50 [19]: 1.9 µM
IC (TGI) [19]: 3.77 µM
CC50 [19]: 7.49 µM
GI50 [20]: 1.68 µM
IC (TGI) [20]: 3.67 µM
CC50 [20]: 8 µM
GI50 [21]: 1.68 µM
IC (TGI) [21]: 3.37 µM
CC50 ([21]; read-out: LC50): 6.77 µM
GI50 [22]: 1.71 µM
IC (TGI) [22]: 3.69 µM
CC50 [22]: 7.99 µM
GI50 [23]: 1.65 µM
IC (TGI) [23]: 3.12 µM
CC50 [23]: 5.88 µM
GI50 [24]: 1.75 µM
IC (TGI) [24]: 3.49 µM
CC50 ([24]; SW-620, read-out: LC50): 6.95 µM

C=C(C)[C@@H]1CCC=C2CC[C@]3(C)[C@H](CC[C@@H]4[C@@]5(C)CCCNC(C)(C)[C@@H]5CC[C@]43C)[C@H]21 [Compound 8]
GI50 [1]: 1.37 µM
IC (TGI) [1]: 2.92 µM
CC50 [1]: 6.22 µM
GI50 [2]: 1.93 µM
IC (TGI) [2]: 3.44 µM
IC (TGI) [3]: 3.34 µM
GI50 [3]: 1.79 µM
CC50 [3]: 6.18 µM
IC (TGI) [4]: 3.31 µM
GI50 [4]: 1.79 µM
CC50 [4]: 5.97 µM
GI50 [5]: 1.7 µM
IC (TGI) [5]: 3.14 µM
GI50 [6]: 1.84 µM
IC (TGI) [6]: 3.26 µM
GI50 [7]: 1.81 µM
IC (TGI) [7]: 3.26 µM
CC50 [7]: 5.88 µM
EC50 ([8]; Homo sapiens, read-out: EC50): 1.88 ± 0.2 µM
EC50 ([9]; Homo sapiens, HT-29, read-out: EC50): 1.3 ± 0.2 µM
EC50 ([10]; Homo sapiens, read-out: EC50): 1.75 ± 0.2 µM
EC50 ([11]; Homo sapiens, A-375, 72 h, read-out: EC50): 1.78 ± 0.1 µM
EC50 ([12]; Homo sapiens, MCF7, read-out: EC50): 1.41 ± 0.1 µM
GI50 [13]: 1.7 µM
IC (TGI) [13]: 3.46 µM
GI50 [14]: 1.97 µM
IC (TGI) [14]: 3.81 µM
Growth % of the Most Sensitive Cell Lines ([15]; HCC-2998, 1 dose 10 µM): −93.75%
GI50 ([15]; Homo sapiens): 1.31 µM
IC (TGI) ([15]; Homo sapiens): 2.76 µM
GI50 [16]: 1.93 µM
IC (TGI) [16]: 3.6 µM
CC50 ([16]; KM12, read-out: LC50): 6.71 µM
GI50 [17]: 1.88 µM
IC (TGI) [17]: 3.45 µM
CC50 [17]: 6.32 µM
GI50 [18]: 1.22 µM
IC (TGI) [18]: 2.81 µM
GI50 [19]: 1.93 µM
IC (TGI) [19]: 3.5 µM
CC50 [19]: 6.35 µM
GI50 [20]: 2.03 µM
IC (TGI) [20]: 3.79 µM
CC50 [20]: 7.08 µM
GI50 [21]: 1.66 µM
IC (TGI) [21]: 3.21 µM
GI50 [22]: 1.72 µM
IC (TGI) [22]: 3.47 µM
CC50 [22]: 7 µM
IC (TGI) [23]: 3.39 µM
GI50 ([23]; read-out: GI50): 1.86 µM
CC50 [23]: 6.17 µM
GI50 [24]: 1.92 µM
IC (TGI) [24]: 3.75 µM
